± gives the expanded uncertainty stated by the source.
Assay: refractive index (Na D-line) (dimensionless); xn = mol fraction of the nth substance listed
Conditions: 100 kPa, Liquid, Standard Abbe refractometry

CC12CC3CC(C)(C1)CC(C)(C3)C2 [1,3,5-trimethyladamantane] + CCCCCCCO
refractive index
Conditions | x2 = 0 | x2 = 0.1001 | x2 = 0.2001 | x2 = 0.3002 | x2 = 0.4004 | x2 = 0.5001 | x2 = 0.6002 | x2 = 0.7001 | x2 = 0.7999 | x2 = 0.9002
293.15 K | 1.4736 ± 0.001 | 1.4695 ± 0.001 | 1.4657 ± 0.001 | 1.4617 ± 0.001 | 1.4573 ± 0.001 | 1.4524 ± 0.001 | 1.4476 ± 0.001 | 1.4424 ± 0.001 | 1.4366 ± 0.001 | 1.4303 ± 0.001
298.15 K | 1.4715 ± 0.001 | 1.4677 ± 0.001 | 1.4637 ± 0.001 | 1.4597 ± 0.001 | 1.4552 ± 0.001 | 1.4504 ± 0.001 | 1.4458 ± 0.001 | 1.4405 ± 0.001 | 1.4348 ± 0.001 | 1.4286 ± 0.001
303.15 K | 1.4695 ± 0.001 | 1.4652 ± 0.001 | 1.4614 ± 0.001 | 1.4574 ± 0.001 | 1.453 ± 0.001 | 1.4484 ± 0.001 | 1.4434 ± 0.001 | 1.4382 ± 0.001 | 1.4325 ± 0.001 | 1.4262 ± 0.001
313.15 K | 1.4649 ± 0.001 | 1.4612 ± 0.001 | 1.4571 ± 0.001 | 1.453 ± 0.001 | 1.4487 ± 0.001 | 1.4438 ± 0.001 | 1.4389 ± 0.001 | 1.4341 ± 0.001 | 1.4283 ± 0.001 | 1.4224 ± 0.001
323.15 K | 1.4612 ± 0.001 | 1.4569 ± 0.001 | 1.453 ± 0.001 | 1.4489 ± 0.001 | 1.4445 ± 0.001 | 1.4398 ± 0.001 | 1.435 ± 0.001 | 1.4299 ± 0.001 | 1.4244 ± 0.001 | 1.4182 ± 0.001
333.15 K | 1.4568 ± 0.001 | 1.4526 ± 0.001 | 1.4485 ± 0.001 | 1.4444 ± 0.001 | 1.4401 ± 0.001 | 1.4354 ± 0.001 | 1.4303 ± 0.001 | 1.4255 ± 0.001 | 1.4195 ± 0.001 | 1.4138 ± 0.001

CC12CC3CC(C)(C1)CC(C)(C3)C2 [1,3,5-trimethyladamantane] + OCC1CCCCC1
refractive index
Conditions | x2 = 0 | x2 = 0.1 | x2 = 0.2001 | x2 = 0.2997 | x2 = 0.4 | x2 = 0.4994 | x2 = 0.5991 | x2 = 0.7 | x2 = 0.801 | x2 = 0.8927
293.15 K | 1.4736 ± 0.001 | 1.4727 ± 0.001 | 1.4718 ± 0.001 | 1.4711 ± 0.001 | 1.4703 ± 0.001 | 1.4694 ± 0.001 | 1.4684 ± 0.001 | 1.4673 ± 0.001 | 1.4661 ± 0.001 | 1.465 ± 0.001
298.15 K | 1.4715 ± 0.001 | 1.4708 ± 0.001 | 1.47 ± 0.001 | 1.4691 ± 0.001 | 1.4681 ± 0.001 | 1.4672 ± 0.001 | 1.4663 ± 0.001 | 1.4655 ± 0.001 | 1.4641 ± 0.001 | 1.4631 ± 0.001
303.15 K | 1.4695 ± 0.001 | 1.4686 ± 0.001 | 1.4676 ± 0.001 | 1.4669 ± 0.001 | 1.4659 ± 0.001 | 1.465 ± 0.001 | 1.4643 ± 0.001 | 1.4632 ± 0.001 | 1.4621 ± 0.001 | 1.4609 ± 0.001
313.15 K | 1.4649 ± 0.001 | 1.4641 ± 0.001 | 1.4633 ± 0.001 | 1.4625 ± 0.001 | 1.4618 ± 0.001 | 1.4608 ± 0.001 | 1.46 ± 0.001 | 1.459 ± 0.001 | 1.458 ± 0.001 | 1.4568 ± 0.001
323.15 K | 1.4612 ± 0.001 | 1.46 ± 0.001 | 1.4589 ± 0.001 | 1.4582 ± 0.001 | 1.4573 ± 0.001 | 1.4565 ± 0.001 | 1.4556 ± 0.001 | 1.4549 ± 0.001 | 1.4539 ± 0.001 | 1.4528 ± 0.001
333.15 K | 1.4568 ± 0.001 | 1.4552 ± 0.001 | 1.4545 ± 0.001 | 1.4538 ± 0.001 | 1.453 ± 0.001 | 1.4522 ± 0.001 | 1.4513 ± 0.001 | 1.4504 ± 0.001 | 1.4492 ± 0.001 | 1.4486 ± 0.001

CC12CC3CC(C1)CC(C)(C3)C2 [1,3-dimethyladamantane] + CCCCCCCO
refractive index
Conditions | x2 = 0 | x2 = 0.1001 | x2 = 0.1997 | x2 = 0.2998 | x2 = 0.3997 | x2 = 0.4997 | x2 = 0.6002 | x2 = 0.7 | x2 = 0.7996 | x2 = 0.8999
293.15 K | 1.4776 ± 0.001 | 1.4735 ± 0.001 | 1.4696 ± 0.001 | 1.4642 ± 0.001 | 1.4591 ± 0.001 | 1.4541 ± 0.001 | 1.4483 ± 0.001 | 1.4427 ± 0.001 | 1.4365 ± 0.001 | 1.4299 ± 0.001
298.15 K | 1.4757 ± 0.001 | 1.4714 ± 0.001 | 1.4678 ± 0.001 | 1.4624 ± 0.001 | 1.4572 ± 0.001 | 1.4519 ± 0.001 | 1.4468 ± 0.001 | 1.4411 ± 0.001 | 1.4351 ± 0.001 | 1.4282 ± 0.001
303.15 K | 1.4734 ± 0.001 | 1.4695 ± 0.001 | 1.4654 ± 0.001 | 1.4603 ± 0.001 | 1.4551 ± 0.001 | 1.4495 ± 0.001 | 1.4442 ± 0.001 | 1.4389 ± 0.001 | 1.4333 ± 0.001 | 1.4265 ± 0.001
313.15 K | 1.4691 ± 0.001 | 1.4646 ± 0.001 | 1.4608 ± 0.001 | 1.4558 ± 0.001 | 1.4508 ± 0.001 | 1.4457 ± 0.001 | 1.4402 ± 0.001 | 1.4347 ± 0.001 | 1.4288 ± 0.001 | 1.4223 ± 0.001
323.15 K | 1.4651 ± 0.001 | 1.4606 ± 0.001 | 1.4567 ± 0.001 | 1.4514 ± 0.001 | 1.4464 ± 0.001 | 1.4411 ± 0.001 | 1.4359 ± 0.001 | 1.4301 ± 0.001 | 1.4244 ± 0.001 | 1.4178 ± 0.001
333.15 K | 1.461 ± 0.001 | 1.4564 ± 0.001 | 1.4527 ± 0.001 | 1.4473 ± 0.001 | 1.4422 ± 0.001 | 1.437 ± 0.001 | 1.4316 ± 0.001 | 1.4262 ± 0.001 | 1.4206 ± 0.001 | 1.4141 ± 0.001

CCC12CC3CC(CC(C3)C1)C2 [1-ethyladamantane] + CCCCCCCO
refractive index
Conditions | x2 = 0 | x2 = 0.0999 | x2 = 0.1999 | x2 = 0.2988 | x2 = 0.3991 | x2 = 0.4998 | x2 = 0.5995 | x2 = 0.7 | x2 = 0.8002 | x2 = 0.9
293.15 K | 1.4927 ± 0.001 | 1.4869 ± 0.001 | 1.4809 ± 0.001 | 1.4746 ± 0.001 | 1.4682 ± 0.001 | 1.461 ± 0.001 | 1.4546 ± 0.001 | 1.4473 ± 0.001 | 1.4397 ± 0.001 | 1.4316 ± 0.001
298.15 K | 1.4906 ± 0.001 | 1.4847 ± 0.001 | 1.4785 ± 0.001 | 1.4725 ± 0.001 | 1.466 ± 0.001 | 1.4594 ± 0.001 | 1.4522 ± 0.001 | 1.4451 ± 0.001 | 1.4376 ± 0.001 | 1.4298 ± 0.001
303.15 K | 1.4884 ± 0.001 | 1.4827 ± 0.001 | 1.4768 ± 0.001 | 1.4704 ± 0.001 | 1.464 ± 0.001 | 1.4573 ± 0.001 | 1.4499 ± 0.001 | 1.4433 ± 0.001 | 1.4359 ± 0.001 | 1.4278 ± 0.001
313.15 K | 1.4839 ± 0.001 | 1.4782 ± 0.001 | 1.4722 ± 0.001 | 1.466 ± 0.001 | 1.4596 ± 0.001 | 1.4528 ± 0.001 | 1.4462 ± 0.001 | 1.4389 ± 0.001 | 1.4316 ± 0.001 | 1.4236 ± 0.001
323.15 K | 1.4802 ± 0.001 | 1.474 ± 0.001 | 1.468 ± 0.001 | 1.4618 ± 0.001 | 1.4554 ± 0.001 | 1.4486 ± 0.001 | 1.4419 ± 0.001 | 1.4349 ± 0.001 | 1.4273 ± 0.001 | 1.4198 ± 0.001
333.15 K | 1.4759 ± 0.001 | 1.4697 ± 0.001 | 1.4635 ± 0.001 | 1.4577 ± 0.001 | 1.451 ± 0.001 | 1.4443 ± 0.001 | 1.4373 ± 0.001 | 1.4305 ± 0.001 | 1.423 ± 0.001 | 1.4156 ± 0.001

CCC12CC3CC(CC(C3)C1)C2 [1-ethyladamantane] + OCC1CCCCC1
refractive index
Conditions | x2 = 0 | x2 = 0.1 | x2 = 0.2002 | x2 = 0.2997 | x2 = 0.3999 | x2 = 0.4998 | x2 = 0.5989 | x2 = 0.7001 | x2 = 0.8023 | x2 = 0.8996
293.15 K | 1.4927 ± 0.001 | 1.4903 ± 0.001 | 1.4877 ± 0.001 | 1.4853 ± 0.001 | 1.4828 ± 0.001 | 1.4801 ± 0.001 | 1.477 ± 0.001 | 1.474 ± 0.001 | 1.4708 ± 0.001 | 1.4673 ± 0.001
298.15 K | 1.4906 ± 0.001 | 1.4883 ± 0.001 | 1.4861 ± 0.001 | 1.4835 ± 0.001 | 1.4807 ± 0.001 | 1.478 ± 0.001 | 1.4754 ± 0.001 | 1.4721 ± 0.001 | 1.4689 ± 0.001 | 1.4655 ± 0.001
303.15 K | 1.4884 ± 0.001 | 1.4861 ± 0.001 | 1.4836 ± 0.001 | 1.4812 ± 0.001 | 1.4783 ± 0.001 | 1.4757 ± 0.001 | 1.4733 ± 0.001 | 1.47 ± 0.001 | 1.4668 ± 0.001 | 1.4634 ± 0.001
313.15 K | 1.4839 ± 0.001 | 1.4816 ± 0.001 | 1.4791 ± 0.001 | 1.4768 ± 0.001 | 1.4741 ± 0.001 | 1.471 ± 0.001 | 1.4687 ± 0.001 | 1.4657 ± 0.001 | 1.4623 ± 0.001 | 1.4593 ± 0.001
323.15 K | 1.4802 ± 0.001 | 1.4775 ± 0.001 | 1.4751 ± 0.001 | 1.4725 ± 0.001 | 1.4699 ± 0.001 | 1.4672 ± 0.001 | 1.4645 ± 0.001 | 1.4616 ± 0.001 | 1.4584 ± 0.001 | 1.4553 ± 0.001
333.15 K | 1.4759 ± 0.001 | 1.4725 ± 0.001 | 1.4703 ± 0.001 | 1.4678 ± 0.001 | 1.4652 ± 0.001 | 1.4627 ± 0.001 | 1.4599 ± 0.001 | 1.4571 ± 0.001 | 1.4541 ± 0.001 | 1.451 ± 0.001
